In ChEMBL document CHEMBL1201862, “PubChem BioAssay data set” (2004):
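Assay format: 96-well plates, 48-hour exposure. GI50 is the concentration that inhibits growth by half.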 The source made the active and inactive calls. Cut-off read from the data, not from the text of the source: active = GI50 up to about 1.1 µM and inactive = higher.

Legend:
Assay in all cases: NCI-60 cell line screen, 48 h
U-251 = system: U-251
SN12C = system: SN12C
OVCAR-4 = system: OVCAR-4
RPMI-8226 = system: RPMI-8226
M19-MEL = system: M19-MEL
ACHN = system: ACHN
HCT-15 = system: HCT-15
DU-145 = system: DU-145
Malme-3M = system: Malme-3M
HT-29 = system: HT-29
Hs-578T = system: Hs-578T
SF-268 = system: SF-268
SW-620 = system: SW-620
CCRF-CEM = system: CCRF-CEM
NCI/ADR-RES = system: NCI/ADR-RES
IGROV-1 = system: IGROV-1
NCI-H226 = system: NCI-H226
RXF 393 = system: RXF 393
OVCAR-8 = system: OVCAR-8
KM12 = system: KM12

Measured: GI50

CCOC(=O)C(=O)NNc1nc2c(s1)C(=O)c1ccccc1C2=O
2.54 µM: HCT-15
inactive: U-251 7.06 µM | SN12C 1.87 µM | OVCAR-4 1.85 µM | RPMI-8226 2.65 µM | ACHN 2.29 µM | DU-145 17.7 µM | Malme-3M 1.95 µM | HT-29 19.1 µM | Hs-578T 2.87 µM | SF-268 4.12 µM | SW-620 2.58 µM | CCRF-CEM 2.34 µM | NCI/ADR-RES 1.87 µM | IGROV-1 5.56 µM | NCI-H226 15.7 µM | RXF 393 4.78 µM | OVCAR-8 1.97 µM | KM12 9.27 µM
active: M19-MEL 0.544 µM

CC1=C(/C=C/C(C)=C/C=C/C(C)=C/C(=O)O)C(C)(C)CCC1 [TRETINOIN]
inactive: U-251 51.3 µM | SN12C 52 µM | OVCAR-4 > 70 µM | RPMI-8226 1.34 µM | M19-MEL > 100 µM | ACHN 48.5 µM | DU-145 55.3 µM | Malme-3M 46.3 µM | HT-29 47.6 µM | Hs-578T > 43 µM | SF-268 > 62.5 µM | SW-620 45.8 µM | CCRF-CEM 44.3 µM | NCI/ADR-RES 37.3 µM | IGROV-1 > 78.9 µM | NCI-H226 43.4 µM | RXF 393 > 68.1 µM | OVCAR-8 > 65.3 µM | KM12 42.3 µM
48.2 µM: HCT-15

Nc1nc2c(ncn2C2CCC(CO)O2)c(=O)n1C(=O)c1ccccc1 (stereo not given)
> 100 µM: HCT-15
inactive: U-251 > 100 µM | SN12C > 100 µM | OVCAR-4 > 100 µM | RPMI-8226 > 100 µM | M19-MEL > 100 µM | ACHN > 100 µM | DU-145 > 100 µM | Malme-3M > 100 µM | HT-29 > 100 µM | Hs-578T > 100 µM | SF-268 > 100 µM | SW-620 > 100 µM | CCRF-CEM > 100 µM | NCI/ADR-RES > 100 µM | IGROV-1 > 100 µM | NCI-H226 > 100 µM | RXF 393 > 100 µM | OVCAR-8 > 100 µM | KM12 > 100 µM

C#CCNC(=O)NC(CCCCNC(=O)OCc1ccccc1)C(=O)OCc1ccccc1 (stereo not given)
> 100 µM: HCT-15
inactive: U-251 > 72.1 µM | SN12C 37.4 µM | OVCAR-4 > 100 µM | RPMI-8226 26.7 µM | M19-MEL 11.3 µM | ACHN 40.1 µM | DU-145 > 100 µM | Malme-3M 24.2 µM | HT-29 > 56.2 µM | Hs-578T > 100 µM | SF-268 67.6 µM | SW-620 > 100 µM | CCRF-CEM 49.8 µM | NCI/ADR-RES > 100 µM | IGROV-1 > 100 µM | NCI-H226 41.6 µM | RXF 393 10.8 µM | OVCAR-8 95.1 µM | KM12 99.8 µM
